Tests used:
[1] = test system: IL-13; experiment: IL-13 level in BAL fluid (ELISA), ovalbumin asthma model; assay type: in vivo, BALB/c female mice; settings: HTHQ 20 and 40 mg/kg/day oral; compared to OVA group
Protocol: 6 week old BALB/c female mice were purchased and the mice were divided into 5 groups with 5 animals per group shown in Table 3 below after habituation breeding of about 2 weeks.
The test was conducted on the schedule of sensitization, causing diseases and administration of test materials shown in FIG. 12. “IP” in FIG. 12 refers to ovalbumin sensitization treatment by the intraperitoneal administration of ovalbumin/aluminum hydroxide, and “IH” refers to inhalation exposure treatment of ovalbumin, and “PO” refers to the administration of the test materials. […]
All mice were euthanized by intraperitoneal injection of pentobarbital (Hanrimu pharmaceutical, South Korea) at 50 mg/kg and the bronchi were excised on day 25 of the test. […] After preparing slide samples from 100 μL of BAL cell fluid using Cytospin (4° C., 1000 rpm×5 min), the cell numbers of inflammatory cells (eosinophils, macrophages, lymphocytes and neutrophils) present in the BAL fluid were counted using a Diff-Quik stain kit.
The supernatant of the BAL fluid stored was taken out of the super-cryostat and IL-4, IL-5 and IL-13 levels were measured as the pro-inflammatory cytokine contents in the supernatant of the BAL fluid. A quantitative ELISA kit (a product from R&D systems) and a microplate reader (a product from Bio-Rad Laboratories, Inc.) were used for the measurement and the measurement wavelength was 450 nm.

[2] = test system: IL-6; experiment: IL-6 level in BAL fluid (ELISA), COPD model; assay type: in vivo, C57BL/6N mice; settings: HTHQ 10 and 20 mg/kg/day oral; tobacco smoke 10 days + LPS; compared to COPD model group
Protocol: 6 week old male SPF C57BL/6N mice, 20 to 25 g of body weight, were purchased from CORETEC INC. (South Korea).
The tests were conducted as follows. The mice in the COPD (chronic obstructive pulmonary disease) model group of the test groups were exposed to tobacco smoke for 1 hour per day (8 cigarettes/day) for 10 days and LPS (5 μg/50 μL/mouse) was intranasally administered to the mice on day 8 after the start of the tests. […]
The mice in the test groups were euthanized 72 hours after the LPS administration and the mice in the normal control group were euthanized on day 11 after the start of the tests by intraperitoneal injection of pentobarbital (Hanrimu pharmaceutical, South Korea) at 50 mg/kg and then the bronchi were excised. […] After preparing slide samples from 100 μL of BAL cell fluid using Cytospin (4° C., 1000 rpm×5 min), the cell numbers of inflammatory cells (neutrophil, macrophages) present in the BAL fluid were counted using a Diff-Quik stain kit.
The supernatant of the BAL fluid stored was taken out of the super-cryostat, and TNF-α and IL-6 levels were measured as the levels of pro-inflammatory cytokines in the supernatant. A quantitative ELISA kit (a product from Invitrogen) and an ELISA analyzer (a product from Molecular Devices, LLC.) were used for the measurement and the measurement wavelength was 450 nm.

In the case of CCCCCCOc1cc(C)c(O)c(C)c1C [HTHQ, 2,3,5-trimethylhydroquinone-1-hexyl ether], the “IL-13 content in BAL fluid” value [1] is reported as “significantly reduced” and the “IL-6 level in BAL fluid” value [2] is reported as “significantly reduced”.

From patent publication US20180049996A1, “THERAPEUTIC AGENT FOR CHRONIC RESPIRATORY DISEASE AND COMPOSITION FOR INHIBITING CARDIAC FIBROSIS” (NIPPON HYPOX LABORATORIES INCORPORATED, priority 2015, published 2018)
